By IC50 is commonly meant the point on the concentration scale where inhibition reaches its midpoint. One may read the EC50 as the concentration that produces a half-maximal response. A word on the Papp: it is a coefficient for how fast a substance crosses the barrier. One may read the inhibition as how much of the control response was suppressed. By Ki is commonly meant the equilibrium dissociation constant of an inhibitor or competing ligand from its target.

Results on 29 compounds are retold here after ChEMBL document CHEMBL4706517, “Discovery of novel berberine derivatives with balanced cholinesterase and prolyl oligopeptidase inhibition profile” (Eur J Med Chem, 2020).

SMILES strings stand for the structures. The source made the active and inactive calls. The rule behind the calls is not given here. Some results are limits rather than exact numbers.

Data set [1] concerns the target T1, Acetylcholinesterase (Homo sapiens, UniProt P22303). Nature of the data set: Inhibition of recombinant human acetylcholinesterase using acetylthiocholine iodide as substrate preincubated with enzyme for 5 mins followed by substrate addition and measured at 2 mins interval by Ellman's method. (In general: DTNB colorimetry detects thiols as they appear.)
Data set [2] concerns CHO-K1. Nature of the data set: Cytotoxicity against CHO-K1 cells assessed as reduction in cell viability measured after 24 hrs by MTT assay. In kind it is cell-based, Cricetulus griseus.
A short description of data set [3]: Antioxidant activity assessed as radical scavenging activity measured after 30 mins by microplate reader based DPPH assay. It is filed as functional. Background: Loss of DPPH colour is used to gauge radical scavenging.
The target of data set [4] is T2, Prolyl endopeptidase (Homo sapiens, UniProt P48147).
T2 sequence (P48147 whole entry): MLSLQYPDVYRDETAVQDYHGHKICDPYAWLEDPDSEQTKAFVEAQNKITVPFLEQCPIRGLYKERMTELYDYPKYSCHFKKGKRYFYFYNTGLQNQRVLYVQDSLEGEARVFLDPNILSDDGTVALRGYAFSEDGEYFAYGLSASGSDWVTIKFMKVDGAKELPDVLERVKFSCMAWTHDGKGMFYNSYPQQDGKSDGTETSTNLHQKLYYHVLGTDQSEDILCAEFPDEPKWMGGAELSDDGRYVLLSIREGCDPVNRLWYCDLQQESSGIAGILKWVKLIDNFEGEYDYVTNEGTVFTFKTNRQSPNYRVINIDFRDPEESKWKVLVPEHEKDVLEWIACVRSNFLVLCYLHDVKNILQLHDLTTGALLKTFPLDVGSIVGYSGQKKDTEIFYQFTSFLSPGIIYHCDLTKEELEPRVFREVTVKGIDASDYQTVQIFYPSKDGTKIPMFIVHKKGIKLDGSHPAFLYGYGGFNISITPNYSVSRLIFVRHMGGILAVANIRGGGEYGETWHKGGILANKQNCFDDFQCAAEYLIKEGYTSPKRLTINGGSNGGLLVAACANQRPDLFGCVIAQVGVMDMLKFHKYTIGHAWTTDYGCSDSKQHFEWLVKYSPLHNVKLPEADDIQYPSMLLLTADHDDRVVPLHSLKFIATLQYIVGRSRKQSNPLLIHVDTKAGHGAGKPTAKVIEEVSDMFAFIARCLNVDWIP
Description: Inhibition of recombinant human Prolyl oligopeptidase expressed in Escherichia coli expression system using (Z)-Gly-Pro-p-nitroanilide as substrate preincubated with enzyme for 5 mins followed by substrate addition and measured for 30 mins by spectrophotometric analysis

Data set [5] can be described thus: in vitro. The conditions noted are these: PAMPA, pH 7.4.
Description: Permeability of the compound at pH 7.4 measured after 6 hrs by PAMPA method
Data set [6] can be described thus: Inhibition of HFIP-pretreated Tau (306 to 336) (unknown origin) self-aggregation at 25 uM measured at interval of 10 mins for overnight with 1 min shaking by thioflavin-T fluorescence method. The conditions noted are these: Homo sapiens.
The nature of data set [7]: Antioxidant activity assessed as radical scavenging activity incubated for 20 mins by DPPH assay based UV spectrophotometer analysis. In kind it is functional.
Data set [8] addresses T1, Acetylcholinesterase. Nature of the data set: Noncompetitive inhibition of human acetylcholinesterase assessed as affinity towards free enzyme using acetylthiocholine iodide as substrate measured by Ellman's method based Lineweaver-Burk plot analysis.
Data set [9] deals with T1, Acetylcholinesterase. Nature of the data set: Noncompetitive inhibition of human acetylcholinesterase assessed as decrease in apparent Vmax with unchanged Km using acetylthiocholine iodide as substrate by Lineweaver-Burk plot analysis.
[10] abbreviates: Cricetulus griseus, CHO-K1, 24 h, read-out: IC50.

T1 sequence (P22303 whole entry): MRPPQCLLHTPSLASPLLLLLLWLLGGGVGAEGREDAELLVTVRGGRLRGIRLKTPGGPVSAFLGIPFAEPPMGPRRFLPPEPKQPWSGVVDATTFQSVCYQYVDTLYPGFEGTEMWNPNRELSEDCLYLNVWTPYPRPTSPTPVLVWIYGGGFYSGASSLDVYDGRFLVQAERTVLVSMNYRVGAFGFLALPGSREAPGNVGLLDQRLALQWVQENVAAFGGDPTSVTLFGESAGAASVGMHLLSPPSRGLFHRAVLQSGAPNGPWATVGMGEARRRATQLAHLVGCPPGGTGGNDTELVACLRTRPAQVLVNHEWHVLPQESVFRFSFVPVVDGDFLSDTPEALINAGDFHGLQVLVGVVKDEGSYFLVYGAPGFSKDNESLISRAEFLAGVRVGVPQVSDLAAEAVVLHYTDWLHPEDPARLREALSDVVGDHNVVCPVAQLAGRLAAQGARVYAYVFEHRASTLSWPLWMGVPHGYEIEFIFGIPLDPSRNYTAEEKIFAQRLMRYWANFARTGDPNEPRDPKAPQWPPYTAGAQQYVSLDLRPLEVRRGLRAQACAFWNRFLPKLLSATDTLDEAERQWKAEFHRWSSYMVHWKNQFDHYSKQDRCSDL

In the case of `COc1cccc(COc2c(OC)ccc3cc4[n+](cc23)CCc2cc3c(cc2-4)OCO3)c1`, the IC50 in [1] is 3.5 µM; in data set [2] (setting [10]), 46 µM; in [4], 40.4 µM. In data set [3], the EC50 was determined as 5300 µM.
Turning to `Cc1c(C)c2c(c(C)c1O)CCC(C)(C(=O)O)O2` (configuration not stated) [TROLOX], the EC50 in data set [3] was 16.2 µM.
In the case of `COc1ccc2cc3[n+](cc2c1OCc1cccc(Br)c1)CCc1cc2c(cc1-3)OCO2`, the figures for the IC50 in data set [1], in data set [2] (setting [10]) and in data set [4] were 2.7 µM, 32 µM and 59.6 µM, respectively. For the same compound, the EC50 in data set [3] turned out to be 2200 µM.
The corresponding values for `COc1ccc2cc3[n+](cc2c1OCc1cccc(Cl)c1)CCc1cc2c(cc1-3)OCO2` are 1.9 µM, 30 µM, 67 µM and 5400 µM.
With `COc1ccc2cc3[n+](cc2c1OCc1ccc(Br)cc1)CCc1cc2c(cc1-3)OCO2.[Br-]`, the IC50 in data set [1] is 3.3 µM; in [2] (setting [10]), 48 µM; in data set [4], 19.4 µM. Besides, in [3], the 50% effective concentration (EC50) is > 6000 µM. In [5], the Papp at 6 h is 0.6 ×10⁻⁶ cm/s.
In the case of `COc1ccc2cc3[n+](cc2c1OCc1ccccc1C)CCc1cc2c(cc1-3)OCO2`, the IC50 in [1] amounted to 10.4 µM; in data set [2] (setting [10]), 55 µM; in data set [4] it was 71.1 µM. For the same compound, the EC50 in data set [3] was found to be 1200 µM.
The corresponding values for `COc1ccc2cc3[n+](cc2c1OCc1ccc(C#N)cc1)CCc1cc2c(cc1-3)OCO2` are 1.7 µM, 292 µM, 36.5 µM and > 6000 µM.
`COc1ccc2cc3[n+](cc2c1OCc1ccc2ccccc2c1)CCc1cc2c(cc1-3)OCO2.[Br-]`: the results for the IC50 in [1], in data set [2] (setting [10]) and in data set [4] were 1.5 µM, 14 µM and 28.5 µM, respectively. In addition, the EC50 in [3] was > 6000 µM. Besides, the inhibition in data set [6] was found to be 62%. Moreover, in [5], the Papp at 6 h was 0.8 ×10⁻⁶ cm/s.
Consider `COc1ccc2cc3[n+](cc2c1OCc1ccccc1)CCc1cc2c(cc1-3)OCO2.[Br-]`, for which the IC50 is 5 µM in data set [1], 55 µM in data set [2] (setting [10]) and 25.4 µM in data set [4]. In addition, the EC50 in [3] was found to be 1900 µM. This compound also came in with a Papp at 6 h in [5] of 0.4 ×10⁻⁶ cm/s.
On to `COc1ccc2cc3[n+](cc2c1O)CCc1cc2c(cc1-3)OCO2` [BERBERRUBINE CHLORIDE], for which, in data set [7], the EC50 was 87 µM.
`Nc1c2c(nc3ccccc13)CCCC2` [TACRINE] returned a Papp at 6 h in data set [5] of 6 ×10⁻⁶ cm/s.
Same read-out and setting: next, `CO/N=C(\C(=O)N[C@@H]1C(=O)N2C(C(=O)O)=C(COC(N)=O)CS[C@H]12)c1ccco1` [CEFUROXIME]: 0.3 ×10⁻⁶ cm/s.
With `COc1ccc2cc3[n+](cc2c1OCc1ccc(SC)cc1)CCc1cc2c(cc1-3)OCO2`, the figures for the IC50 in data set [1], in [2] (setting [10]) and in data set [4] were 2.6 µM, 43 µM and 34 µM, respectively. For the same compound, the EC50 in data set [3] is > 6000 µM.
Turning to `COc1ccc2cc3[n+](cc2c1OCc1ccccc1Br)CCc1cc2c(cc1-3)OCO2`, the IC50 in data set [1] came out at 1.7 µM; in data set [2] (setting [10]), 26 µM; in data set [4], 38.9 µM. Besides, the EC50 in data set [3] is > 6000 µM.
The corresponding values for `COc1ccc2cc3[n+](cc2c1OCc1ccc(Cl)c(Cl)c1)CCc1cc2c(cc1-3)OCO2` are 1.22 µM, 9 µM, 52.7 µM and > 6000 µM.
Turning to `COc1ccc2cc3[n+](cc2c1OCc1cccc([N+](=O)[O-])c1)CCc1cc2c(cc1-3)OCO2.[Br-]`, the IC50 was determined as 1.45 µM in data set [1], 30 µM in [2] (setting [10]) and 24.7 µM in data set [4]. Besides, the EC50 in data set [3] is 5600 µM. The compound also gave a Papp at 6 h in data set [5] of 1.2 ×10⁻⁶ cm/s.
Take `COc1ccc2cc3[n+](cc2c1OC)CCc1cc2c(cc1-3)OCO2.[Cl-]` [BERBERINE CHLORIDE]: the IC50 in [2] (setting [10]) stood at 336 µM. Further, in data set [3], the EC50 was 5500 µM. In addition, in [6], the inhibition was determined as 25%. This compound also displayed a Papp at 6 h in data set [5] of 0.2 ×10⁻⁶ cm/s.
Turning to `COc1ccc2cc3[n+](cc2c1OCc1ccc(C(F)(F)F)cc1)CCc1cc2c(cc1-3)OCO2.[Br-]`, the IC50 was 1.3 µM in data set [1], 21 µM in [2] (setting [10]) and 27.4 µM in [4]. For the same compound, the Ki in data set [8] worked out at 0.000456 µM. Besides, the EC50 in data set [3] came out at 5300 µM. For the same compound, in data set [9], the inhibition entry is “Active”. Besides, the Papp at 6 h in data set [5] was 0.8 ×10⁻⁶ cm/s.
Consider `COc1ccc2cc3[n+](cc2c1OCc1cc(C)cc(C)c1)CCc1cc2c(cc1-3)OCO2`, for which the results for the IC50 in [1], in data set [2] (setting [10]) and in [4] were 2.5 µM, 23 µM and 58.7 µM, respectively. Besides, the EC50 in data set [3] is 990 µM.
As to `COc1ccc(COc2c(OC)ccc3cc4[n+](cc23)CCc2cc3c(cc2-4)OCO3)cc1.[Br-]`, the IC50 in data set [1] was 5.3 µM; in [2] (setting [10]) it was 42 µM; in data set [4], 40.5 µM. Moreover, in [3], the EC50 is > 6000 µM. Also, in data set [5], the Papp at 6 h turned out to be 4.8 ×10⁻⁶ cm/s.
For the compound `COc1ccc2cc3[n+](cc2c1OCc1ccc(C)cc1)CCc1cc2c(cc1-3)OCO2.[Br-]`, the IC50 came to 75.8 µM in data set [1], 43 µM in data set [2] (setting [10]) and 10.7 µM in data set [4]. In data set [3], the EC50 is 1900 µM. In addition, the inhibition in [6] is 31.9%. The compound further had a Papp at 6 h in [5] of 0.8 ×10⁻⁶ cm/s.
With `COC(=O)c1ccc(COc2c(OC)ccc3cc4[n+](cc23)CCc2cc3c(cc2-4)OCO3)cc1`, the IC50 in data set [1] was determined as 2.6 µM; in [2] (setting [10]), 50 µM; in data set [4], 47.6 µM. Besides, the EC50 in [3] was 5300 µM.
For the compound `C[C@H]1c2cccc(O)c2C(=O)C2=C(O)[C@]3(O)C(=O)C(C(N)=O)=C(O)[C@@H](N(C)C)[C@@H]3[C@@H](O)[C@@H]21`, in data set [6], the inhibition is 39.6%.
In the case of `COc1ccc2cc3[n+](cc2c1OCc1ccc([N+](=O)[O-])cc1)CCc1cc2c(cc1-3)OCO2.[Br-]`, the IC50 in data set [1] was 0.99 µM; in [2] (cho-k1), “Nd(Insoluble)”; in data set [4], 21.2 µM. Besides, the EC50 in [3] came out at 5000 µM. The same compound yielded a Papp at 6 h in data set [5] of 1.4 ×10⁻⁶ cm/s.
Turning to `COc1ccc2cc3[n+](cc2c1OCc1ccc(Cl)cc1)CCc1cc2c(cc1-3)OCO2`, the IC50 amounted to 2.5 µM in data set [1], 13 µM in [2] (setting [10]) and 39.4 µM in data set [4]. Moreover, the EC50 in data set [3] came to 5200 µM.
`COc1ccc2cc3[n+](cc2c1OC(C)c1ccccc1)CCc1cc2c(cc1-3)OCO2.[Br-]` (configuration not stated): the values for the IC50 in data set [1], in data set [2] (setting [10]) and in [4] were 0.79 µM, 42 µM and 29.5 µM, respectively. Moreover, the EC50 in data set [3] is 5600 µM. The inhibition in data set [6] came to 38.3%. In data set [5], this compound came in with a Papp at 6 h of 0.4 ×10⁻⁶ cm/s.
Turning to `COc1ccc2cc3[n+](cc2c1OCc1cccc(C)c1)CCc1cc2c(cc1-3)OCO2`, the IC50 in [1] came to 7.3 µM; in data set [2] (setting [10]), 58 µM; in [4] it was 79.1 µM. Moreover, the EC50 in data set [3] was found to be 1200 µM.
The corresponding values for `COc1ccc2cc3[n+](cc2c1OCc1ccc(C(C)C)cc1)CCc1cc2c(cc1-3)OCO2` are 4.2 µM, 17 µM, 53.3 µM and 1300 µM.
As to `CC(=O)N[C@@H](CS)C(=O)O` [ACETYLCYSTEINE], in data set [3], the EC50 was found to be 27.9 µM.
